How the values were obtained:
Format in all cases: biochemical
[1] = molecular target: T1, cathepsin B (Homo sapiens, UniProt P07858); experiment: Inhibition of cathepsin B; details: Cbz-Phe-Arg-AMC 0.1 mM; for Cat B % I @ 1 uM: pH 6.0; for inhibition at 1 µM: pH 6, 1 uM, read-out: Cat B % I @ 1 uM
T1 construct: purchased Calbiochem 219364

[2] = molecular target: T2, Calpain I (Homo sapiens, UniProt P07384); experiment: Inhibition of calpain I activity (IC50, fluorescence plate reader); details: substrate 0.2 mM Succ-Leu-Tyr-MNA, pH 7.5
T2 construct: made in house
T2 sequence (P07384 1-714): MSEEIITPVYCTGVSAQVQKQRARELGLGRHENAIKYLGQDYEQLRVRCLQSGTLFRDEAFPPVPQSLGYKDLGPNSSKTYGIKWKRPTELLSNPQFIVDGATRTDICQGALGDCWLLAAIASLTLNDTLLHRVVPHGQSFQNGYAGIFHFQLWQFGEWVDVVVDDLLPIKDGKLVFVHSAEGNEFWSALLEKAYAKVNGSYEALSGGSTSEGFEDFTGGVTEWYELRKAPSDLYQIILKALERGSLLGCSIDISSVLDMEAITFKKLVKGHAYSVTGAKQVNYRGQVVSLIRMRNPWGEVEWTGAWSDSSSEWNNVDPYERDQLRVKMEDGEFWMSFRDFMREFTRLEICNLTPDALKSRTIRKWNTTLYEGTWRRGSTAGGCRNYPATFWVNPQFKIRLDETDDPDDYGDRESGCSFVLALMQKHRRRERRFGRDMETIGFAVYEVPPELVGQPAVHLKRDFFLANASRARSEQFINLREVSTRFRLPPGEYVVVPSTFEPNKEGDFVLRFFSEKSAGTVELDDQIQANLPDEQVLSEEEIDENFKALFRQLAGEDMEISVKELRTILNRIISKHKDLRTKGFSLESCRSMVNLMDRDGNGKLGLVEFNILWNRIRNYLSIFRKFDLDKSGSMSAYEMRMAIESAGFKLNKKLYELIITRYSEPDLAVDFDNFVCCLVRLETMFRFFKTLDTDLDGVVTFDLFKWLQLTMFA
T2 sequence (P04632 1-268 partner): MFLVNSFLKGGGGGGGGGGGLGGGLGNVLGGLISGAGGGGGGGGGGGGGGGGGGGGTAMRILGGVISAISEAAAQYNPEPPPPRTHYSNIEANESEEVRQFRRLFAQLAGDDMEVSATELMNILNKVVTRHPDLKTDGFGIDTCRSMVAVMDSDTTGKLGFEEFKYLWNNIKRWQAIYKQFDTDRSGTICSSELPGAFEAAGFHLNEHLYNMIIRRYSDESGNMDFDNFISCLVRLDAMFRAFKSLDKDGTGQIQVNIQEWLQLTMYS
Protocol: (§1) To evaluate inhibitory activity, stock solutions (40 times concentrated) of each compound to be tested were prepared in 100% anhydrous DMSO and 5 μL of each inhibitor preparation were aliquoted into each of three wells of a 96-well plate. Calpain I, prepared by a modification of the method of W. J. Lee et al. (Biochem. Internatl. 22: 163-171 (1990)), was diluted into assay buffer (i.e., 50 mM Tris, 50 mM NaCl, 1 mM EDTA, 1 mM EGTA, and 5 mM-mercaptoethanol, pH 7.5 including 0.2 mM Succ-Leu-Tyr-MNA) and 175 μL aliquoted into the same wells containing the independent inhibitor stocks as well as to positive control wells containing 5 μL DMSO, but no compound. To start the reaction, 20 μL of 50 mM CaCl2 in assay buffer was added to all wells of the plate, excepting three, which were used as background signal baseline controls. Substrate hydrolysis was monitored every 5 minutes for a total of 30 minutes using a Fluoroskan II fluorescence plate reader. Substrate hydrolysis in the absence of inhibitor was linear for up to 15 minutes.
Inhibition of calpain I activity was calculated as the percent decrease in the rate of substrate (S) hydrolysis in the presence of inhibitor (I) relative to the rate in its absence (o). Comparison between the inhibited and control rates was made within the linear range for substrate hydrolysis. For screening, compounds were tested at 10 μM. Compounds having 50% inhibition at 10 μM were considered active. The IC50s of inhibitors (concentration yielding 50% inhibition) were determined from the percent decrease in the rates of substrate hydrolysis in the presence of five to seven different concentrations of the test compound. The results were plotted as % inhibition versus log inhibitor concentration and the IC50 was calculated from linear regression of the data. Apparent second order rate constants were determined from analysis of reaction progress curves under pseudo-first order conditions. Each determination represents the means of three or more independent single cuvette analyses continually monitored via a Perkin-Elmer LS50B spectrofluorimeter. The rate of inhibition of hydrolysis was obtained by fitting the curve to the exponential equation (1): […]

[3] = molecular target: T3, cathepsin L (Homo sapiens, UniProt P07711); experiment: Inhibition of cathepsin L; details: Cbz-Phe-Arg-AMC 0.006 mM; for Cat L % I @ 1 uM: pH 6.0; for inhibition at 1 µM: pH 6, 1 uM, read-out: Cat L % I @ 1 uM
T3 construct: purchased Calbiochem 219402

[4] = molecular target: T4, thrombin (Homo sapiens, UniProt P00734); experiment: Inhibition of thrombin; details: 25 μM Bz-Phe-Val-Arg-AMC; for inhibition at 10 µM: pH 7.5, read-out: Thrombin % I @ 10 uM; for Thrombin % I @ 10 uM: pH 7.5
T4 construct: purchased Sigma Chem. Co. T-7009
Protocol: as §1
(§2) Inhibition of calpain I activity was calculated as the percent decrease in the rate of substrate (S) hydrolysis in the presence of inhibitor (I) relative to the rate in its absence (o). Comparison between the inhibited and control rates was made within the linear range for substrate hydrolysis. For screening, compounds were tested at 10 μM. Compounds having 50% inhibition at 10 μM were considered active. The IC50s of inhibitors (concentration yielding 50% inhibition) were determined from the percent decrease in the rates of substrate hydrolysis in the presence of five to seven different concentrations of the test compound. The results were plotted as % inhibition versus log inhibitor concentration and the IC50 was calculated from linear regression of the data. Apparent second order rate constants were determined from analysis of reaction progress curves under pseudo-first order conditions. Each determination represents the means of three or more independent single cuvette analyses continually monitored via a Perkin-Elmer LS50B spectrofluorimeter. The rate of inhibition of hydrolysis was obtained by fitting the curve to the exponential equation (1):
(§3) Additionally, because α-chymotrypsin is not a calcium sensitive enzyme and is constitutively active, following addition of inhibitor stocks to the 96 well plates, 100 μl of a 2-fold concentrated stock of enzyme in dilution buffer was first added and the reaction started by addition of 100 μl of a 2-fold concentrated stock of substrate in assay buffer. Substrate hydrolysis was monitored every 5 minutes up to 30 minutes using a Fluoroskan II ([…]).
Inhibition of thrombin (Sigma Chem. Co. Cat. #T-7009) was evaluated as described for chymotrypsin except that the assay was performed in 50 mM Tris, 10 mM CaCl2, pH 7.5 and the substrate was 25 μM Bz-Phe-Val-Arg-AMC (Bachem cat#I-1080).

[5] = molecular target: T5, α-chymotrypsin (Bos taurus, UniProt P00766); experiment: Inhibition of α-chymotrypsin; details: 0.03 mM Succ-Ala-Ala-Pro-Phe-AMC; for Chymotrypsin % I @: 10 μM, pH 7.5; for inhibition at 10 µM: pH 7.5, 10 μM, read-out: Chymotrypsin % I @
T5 construct: purchased Sigma Chem. Co. C-3142
Protocol: as §1, §2, §3

T3 sequence (P07711 114-288 limits assumed): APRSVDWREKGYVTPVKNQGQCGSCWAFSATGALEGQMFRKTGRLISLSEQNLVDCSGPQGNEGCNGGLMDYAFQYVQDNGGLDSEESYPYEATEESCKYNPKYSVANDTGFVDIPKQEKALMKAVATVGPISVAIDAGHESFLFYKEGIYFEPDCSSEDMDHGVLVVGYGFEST
T3 sequence (P07711 292-333 limits assumed): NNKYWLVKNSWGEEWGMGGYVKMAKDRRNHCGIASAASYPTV

Row | SMILES | Cat B % I @ 1 uM [1] | IC50 [2] | Cat L % I @ 1 uM [3] | inhibition at 10 µM [4] | Chymotrypsin % I @ [5] | Thrombin % I @ 10 uM [4] | inhibition at 10 µM [5] | inhibition at 1 µM [1] | inhibition at 1 µM [3]
1 | CC(C)CC(CC(=O)N1CCc2ccccc2C1)C(=O)N[C@H](C=O)Cc1ccccc1 (single isomer, unassigned) [Compound 16f-I, 2-THIQ-COCH2 CH(iBu)Cd-Phe-H] | 100% | 28 nM | 96% | 0% | 39% | – | – | – | –
2 | CC(C)CC(CC(=O)N1CCc2ccccc2C1)C(=O)N[C@H](C=O)Cc1ccccc1 (single isomer, unassigned) [Compound 16f-II, 2-THIQ-COCH2 CH(iBu)CO-Phe-H (Diastereomer)] | 71% | 1000 nM | 52% | – | 12% | 0% | – | – | –
3 | CC(C)CC(CC(=O)N1CCN(c2ccccc2)CC1)C(=O)N[C@H](C=O)CC(C)C (single isomer, unassigned) [Compound 16g-I, Ph-Piperazine-COCH2 CH(iBu)CO-Leu-H] | 100% | 227 nM | 97% | 0% | – | – | 0% | – | –
4 | CC(C)CC(CC(=O)N1CCN(c2ccccc2)CC1)C(=O)N[C@H](C=O)CC(C)C (single isomer, unassigned) [Compound 16g-II, Ph-Piperazine-COCH2 CH(iBu)CO-Leu-H] | 67% | 4500 nM | 35% | – | 0% | 0% | – | – | –
5 | CCNC(=O)C(=O)C(CC)NC(=O)C(CC(=O)CCCCc1ccccc1)CC(C)C (stereo not drawn) [Compound 8a, Ph(CH2)4 COCH2 CH(iBu)CO-Abu-CONHEt] | – | 8440 nM | – | 0% | – | – | 0% | 10% | 81%
6 | CCNC(=O)C(=O)C(CC)NC(=O)C(CC(=O)[C@@H](CC)c1ccccc1)CC(C)C (stereo partly drawn) [Compound 8b, CH3 CH2 CH(Ph)COCH2 CH(iBu)CO-Abu-CONHEt] | – | 6690 nM | – | 0% | – | – | 0% | 84% | 98%
7 | CCNC(=O)C(=O)C(CC)NC(=O)C(CC(=O)C(c1ccccc1)c1ccccc1)CC(C)C (stereo not drawn) [Compound 8c, Ph2 CHCOCH2 CH(iBu)CO-Abu-CONHEt] | – | 1730 nM | – | 0% | – | – | 6% | 100% | 100%
8 | CCNC(=O)C(=O)C(CC)NC(=O)C(CC(=O)C1c2ccccc2Oc2ccccc21)CC(C)C (stereo not drawn) [Compound 8d, Xanthene-COCH2 CH(iBu.)CO-Abu-CONHEt] | – | 485 nM | – | 10% | – | – | 7% | 78% | 100%
9 | CCNC(=O)C(=O)C(CC)NC(=O)C(CC(=O)[C@H](CC(C)C)NC(=O)OCc1ccccc1)CC(C)C (stereo partly drawn) [Compound 8e, Z-Leu-CH2 CH(iBu)CO-Abu-CONHEt] | – | 380 nM | – | 0% | – | – | 0% | 100% | 95%
10 | CCNC(=O)C(=O)C(CC(C)C)NC(=O)C(CC(=O)C1c2ccccc2Oc2ccccc21)CC(C)C (stereo not drawn) [Compound 8f, Xanthene-CO(CH2 CH(iBu)CO-Leu-CONHEt] | – | 130 nM | – | 13% | – | – | 93% | 98% | 100%
11 | CC(C)CC(CC(=O)CCCCc1ccccc1)C(=O)N[C@H](C=O)CC(C)C (stereo partly drawn) [Compound 16a, Ph(CH2)4 COCH2 CH(iBu)CO-Leu-H] | – | – | – | 0% | – | – | 61% | 97% | 100%
12 | CCC(C(=O)CC(CC(C)C)C(=O)N[C@H](C=O)CC(C)C)c1ccccc1 (stereo partly drawn) [Compound 16b, CH3 CH2 CH(Ph)COCH2 CH(iBu)CO-Leu-H] | – | 55 nM | – | 0% | – | – | 21% | 99% | 100%
13 | CC(C)CC(CC(=O)C(c1ccccc1)c1ccccc1)C(=O)N[C@H](C=O)CC(C)C (stereo partly drawn) [Compound 16c, Ph2 CHCOCH2 CH(iBu)CO-Leu-H] | – | 50 nM | – | 1% | – | – | 62% | 97% | 100%
14 | CC(C)CC(CC(=O)C1c2ccccc2Oc2ccccc21)C(=O)N[C@H](C=O)CC(C)C (stereo partly drawn) [Compound 16d, Xanthene-COCH2 CH(iBu)CO-Leu-H] | – | – | – | 25% | – | – | 98% | 76% | 100%
15 | CC(C)CC(CC(=O)CN(CC(C)C)C(=O)OCc1ccccc1)C(=O)N[C@H](C=O)CC(C)C (stereo partly drawn) [Compound 32, Z-N(iBu)CH2 COCH2 CH(iBu)CON H-Leu-H] | – | 71 nM | – | – | – | – | – | – | –

— patent publication US6329377A, “Ketomethylene group-containing cysteine and serine protease inhibitors” (Cephalon, Inc., priority 2000, dated 2001)
